The compounds below were run against human α7 receptor (Homo sapiens, UniProt P36544) (assay: α7 NNR flux assay (FDSS Ca assay)). Details: positive allosteric modulation; rat GH4C1 cell line stably expressing human α7; acetylcholine 20 μM; % modulation relative to PNU-120596 set to 100%.
human α7 receptor, sequence (P36544 23-502): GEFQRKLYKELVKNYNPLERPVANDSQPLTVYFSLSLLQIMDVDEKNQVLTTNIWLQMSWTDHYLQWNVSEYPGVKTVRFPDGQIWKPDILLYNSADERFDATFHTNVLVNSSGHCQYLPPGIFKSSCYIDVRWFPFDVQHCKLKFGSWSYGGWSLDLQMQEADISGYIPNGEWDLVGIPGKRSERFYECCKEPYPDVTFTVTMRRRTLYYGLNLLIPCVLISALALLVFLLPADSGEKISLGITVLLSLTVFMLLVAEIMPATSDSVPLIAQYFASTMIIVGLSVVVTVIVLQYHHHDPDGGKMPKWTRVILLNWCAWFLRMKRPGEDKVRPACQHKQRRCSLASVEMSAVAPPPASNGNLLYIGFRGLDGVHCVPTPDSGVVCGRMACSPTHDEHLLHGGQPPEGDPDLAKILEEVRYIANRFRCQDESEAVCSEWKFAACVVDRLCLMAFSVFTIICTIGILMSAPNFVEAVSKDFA
Type: cell-based
Method: In this version of the assay, the human α7 receptor is stably expressed in the rat GH4C1 cell line. The assay was used to identify positive allosteric modulators (PAMs) of the α7 receptor. Activation of the channel was measured by loading cells with the calcium-sensitive fluorescent dye Calcium-4 (Assay kit from Molecular Devices), and then measuring real-time changes in fluorescence upon treatment with test compounds.
The cell line ChanClone GH4C1-nAChRalpha7 from Genionics was seeded from frozen stock in 384-well plates in culture media 2-3 days before experiment to form an approximately 80% confluent layer on the day of experiment.
The cell culture were split into “22.5 cm×22.5 cm”-plates with approximately 100×10^3 cells/cm^2. After four days incubation in a humidified incubator at 37° C. and 5% CO2, it had grown to an 80-90% confluent layer, and the cells were harvested.
Two or three days before the experiment the cells were seeded in 384 well plates from Greiner bio-one (781946, CELLCOAT, Poly-D-Lysine, black, μClear).
The cells were seeded in 384 well plates with 30 μL/well (30000 cells/well) while stirring the cell suspension or otherwise preventing the cells from precipitating. The plates were incubated at room temperature for 30-45 minutes. The plates were placed in incubator for two days (37° C. and 5% CO2).
The loading buffer was 5% v/v Calcium-4 Kit and 2.5 mM Probenecid in assay buffer.
Culture media were removed from the cell plates and 20 μL loading buffer was added in each well. The cell plates were placed in trays and incubated 90 minutes in the incubator (37° C.). Thereafter the plates were incubated 30 minutes at room temperature, still protected from light. Now the cell plates were ready to run in the Functional Drug Screening System (FDSS) The assay buffer was HBSS with 20 mM HEPES, pH 7.4 and 3 mM CaCl2.
200 nL 10 mM compound solution in DMSO was diluted in 50 μL assay buffer. The final test concentrations in the cell plates were 20-10-5-2.5-1.25-0.625-0.312-0.156-0.078-0.039 μM. Assay buffer and 3 μM PNU-120596 were used for control:
The agonist acetylcholine was added to a final concentration of 20 μM (˜EC100). In the FDSS7000 the Ex480-Em540 was measured with 1 second intervals. The baseline was made of 5 frames before addition of test compounds, and 95 frames more were made before addition of acetylcholine. The measurement stopped 30 frames after the 2nd addition. Raw data for each well were collected as “the maximum fluorescence count” in the interval 100-131 seconds and as “the average fluorescence count” in the interval 96-100 seconds. The positive allosteric modulation in the 2nd addition was the enhancement of agonist response with test compound compared to agonist alone.
Results were calculated as % modulation of test compound compared to the reference PNU-120596 set to 100%.
Work on `CCn1cc(C(=O)N[C@H](C)c2ccc3[nH]c(C)cc3c2)cn1` [Compound 43, 1-ethyl-N-[(1R)-1-(2-methyl-1H-indol-5-yl)ethyl]pyrazole-4-carboxamide] yielded an EC50 of 2.2 µM. `Cc1cc2cc(CNC(=O)c3cc(C)oc3C)ccc2[nH]1` [Compound 7, 2,5-dimethyl-N-[(2-methyl-1H-indol-5-yl)methy]furan-3-carboxamide] showed an EC50 of 1.4 µM. In the case of `Cc1cc2cc(CNC(=O)c3ccn(CCF)n3)ccc2[nH]1` [Compound 94, 1-(2-fluoroethyl)-N-[(2-methyl-1H-indol-5-yl)methyl]pyrazole-3-carboxamide], the EC50 is reported as 9.5 µM. In the case of `Cc1cc(C(=O)NCc2ccc3[nH]c(C#N)cc3c2)sn1` [Compound 120, N-[(2-cyano-1H-indol-5-yl)-methyl]-3-methyl-isothiazole-5-carboxamide], the EC50 is reported as 3.3 µM. `Cn1c(C(F)(F)F)cc2cc(CNC(=O)c3cc(CC(F)(F)F)no3)ccc21` [Compound 90, N-[[1-methyl-2-(trifluoromethyl)indol-5-yl]methyl]-3-(2,2,2-trifluoroethyl)isoxazole-5-carboxamide] gave an EC50 of 5 µM. Compound `O=C(NCc1ccc2c(ccn2C(F)F)c1)c1cnn(CC(F)(F)F)c1` [Compound 68, N-[[1-(difluoromethyl)indol-5-yl]methyl]-1-(2,2,2-trifluoroethyl)pyrazole-4-carboxamide] has an EC50 of 2.1 µM. Compound `Cc1cc2cc(CNC(=O)c3cccs3)ccc2[nH]1` [Compound 13, N-[(2-methyl-1H-indol-5-yl)methyl]thiophene-2-carboxamide] has an EC50 of 0.53 µM. For `COCc1cc(C(=O)N[C@H](C)c2ccc3[nH]c(C)cc3c2)on1` [Compound 112, 3-(methoxymethyl)-N-[(1R)-1-(2-methyl-1H-indol-5-yl)ethyl]isoxazole-5-carboxamide], the EC50 was 1.1 µM. For `Cc1cc2cc([C@@H](C)NC(=O)c3cnc(C)s3)ccc2[nH]1` [Compound 42, 2-methyl-N-[(1R)-1-(2-methyl-1H-indol-5-yl)ethyl]thiazole-5-carboxamide], the EC50 was 5.6 µM. `[2H]C([2H])([2H])c1cc2cc(CNC(=O)c3cc(C)no3)ccc2[nH]1` [Compound 73, 3-methyl-N-[[2-(trideuteriomethyl)-1H-indol-5-yl]methyl]isoxazole-5-carboxamide] was tested, and the EC50 was 2.8 µM. Compound `Cc1cc(C(=O)NCc2cc3cc(C)[nH]c3cc2F)on1` [Compound 104, N-[(6-fluoro-2-methyl-1H-indol-5-yl)methyl]-3-methyl-isoxazole-5-carboxamide] has an EC50 of 4.2 µM. With `[2H]C([2H])([2H])c1cc2cc(CNC(=O)c3cc(CC(F)(F)F)no3)ccc2[nH]1` [Compound 78, N-[[2-(trideuteriomethyl)-1H-indol-5-yl]methyl]-3-(2,2,2-trifluoroethyl)isoxazole-5-carboxamide] the EC50 was 0.61 µM. `Cc1cc(C(=O)NCc2cc(C)c3[nH]ccc3c2)on1` [Compound 23, 3-methyl-N-[(7-methyl-1H-indol-5-yl)methyl]isoxazole-5-carboxamide] was tested, and the EC50 was 7.1 µM. For `Cc1cc2cc(CNC(=O)c3sc(=O)n(C)c3C)ccc2[nH]1` [Compound 60, 3,4-dimethyl-N-[(2-methyl-1H-indol-5-yl)methyl]-2-oxo-thiazole-5-carboxamide], the EC50 was 4.1 µM. With `O=C(NCc1ccc2[nH]c(C(F)F)cc2c1)c1cnn(CC(F)(F)F)c1` [Compound 91, N-[[2-(difluoromethyl)-1H-indol-5-yl]methyl]-1-(2,2,2-trifluoroethyl)pyrazole-4-carboxamide] the EC50 was 1.7 µM. `O=C(NCc1ccc2[nH]c(C(F)F)cc2c1)c1cc(CC(F)(F)F)no1` [Compound 93, N-[[2-(difluoromethyl)-1H-indol-5-yl]methyl]-3-(2,2,2-trifluoroethyl)isoxazole-5-carboxamide] gave an EC50 of 5.4 µM. `Cc1cc2cc(CNC(=O)c3sccc3Cl)ccc2[nH]1` [Compound 4, 3-chloro-N-[(2-methyl-1H-indol-5-yl)methyl]thiophene-2-carboxamide] showed an EC50 of 2.9 µM. Work on `O=C(NCc1ccc2[nH]ccc2c1)c1cc(CCF)no1` [Compound 115, 3-(2-fluoroethyl)-N-(1H-indol-5-ylmethyl)isoxazole-5-carboxamide] yielded an EC50 of 4.3 µM. For `Cc1cc(C(=O)N[C@@H](C)c2ccc3[nH]c(C)cc3c2F)on1` [Compound 54, N-[(1S)-1-(4-fluoro-2-methyl-1H-indol-5-yl)ethyl]-3-methyl-isoxazole-5-carboxamide], the EC50 was > 20 µM. In the case of `Cc1cc2cc(CNC(=O)c3cnn4c3CCC4)ccc2[nH]1` [Compound 117, N-[(2-methyl-1H-indol-5-yl)methyl]-5,6-dihydro-4H-pyrrolo[1,2-b]pyrazole-3-carboxamide], the EC50 is reported as 7 µM. In the case of `Cc1cc2cc(CNC(=O)c3oncc3C)ccc2[nH]1` [Compound 15, 4-methyl-N-[(2-methyl-1H-indol-5-yl)methyl]isoxazole-5-carboxamide], the EC50 is reported as 9.6 µM. In the case of `Cc1cc(C(=O)NCc2ccc3c(c2)cc(C)n3C(F)(F)F)on1` [Compound 84, 3-methyl-N-[[2-methyl-1-(trifluoromethyl)indol-5-yl]methyl]isoxazole-5-carboxamide], the EC50 is reported as 6 µM. Work on `Cc1cc(C(=O)NC(C)c2ccc3[nH]c(C(F)(F)F)cc3c2)on1` (single isomer, unassigned) [Compound 97, 3-methyl-N-[1-[2-(trifluoromethyl)-1H-indol-5-yl]ethyl]isoxazole-5-carboxamide] yielded an EC50 of 5.2 µM. `Cc1cc2cc(CNC(=O)c3cc(=O)n(C)[nH]3)ccc2[nH]1` [Compound 32, 2-methyl-N-[(2-methyl-1H-indol-5-yl)methyl]-3-oxo-1H-pyrazole-5-carboxamide] was tested, and the EC50 was 11 µM. `Cc1cc2cc([C@@H](C)NC(=O)c3cnn(CCF)c3)ccc2[nH]1` [Compound 48, 1-(2-fluoroethyl)-N-[(1R)-1-(2-methyl-1H-indol-5-yl)ethyl]pyrazole-4-carboxamide] was tested, and the EC50 was 1.7 µM. Compound `Cc1cc(C(=O)N[C@H](C)c2ccc3[nH]c(C)cc3c2F)on1` [Compound 53, N-[(1R)-1-(4-fluoro-2-methyl-1H-indol-5-yl)ethyl]-3-methyl-isoxazole-5-carboxamide] has an EC50 of 6 µM. Work on `Cc1cc2cc(CNC(=O)c3sccc3C)ccc2[nH]1` [Compound 9, 3-methyl-N-[(2-methyl-1H-indol-5-yl)methyl]thiophene-2-carboxamide] yielded an EC50 of 1.8 µM. In the case of `Cc1cc(C(=O)NCc2ccc3[nH]c(C(F)F)cc3c2)on1` [Compound 92, N-[[2-(difluoromethyl)-1H-indol-5-yl]methyl]-3-methyl-isoxazole-5-carboxamide], the EC50 is reported as 8.3 µM. In the case of `Cc1cc2cc(CNC(=O)c3csc(C)n3)ccc2[nH]1` [Compound 25, 2-methyl-N-[(2-methyl-1H-indol-5-yl)methyl]thiazole-4-carboxamide], the EC50 is reported as 4.7 µM. For `Cc1cc2cc(CNC(=O)c3cnn(CC(F)(F)F)c3)ccc2n1C(F)(F)F` [Compound 83, N-[[2-methyl-1-(trifluoromethyl)indol-5-yl]methyl]-1-(2,2,2-trifluromethyl)pyrazole-4-carboxamide], the EC50 was 11 µM. `Cc1cc(C(=O)N[C@@H](c2ccc3[nH]c(C)cc3c2)C(F)(F)F)on1` [Compound 45, 3-methyl-N-[(1S)-2,2,2-trifluoro-1-(2-methyl-1H-indol-5-yl)ethyl]isoxazole-5-carboxamide] was tested, and the EC50 was 1.5 µM. For `Cc1cc2cc(CNC(=O)c3cnc(C)o3)ccc2[nH]1` [Compound 50, 2-methyl-N-[(2-methyl-1H-indol-5-yl)methyl]oxazole-5-carboxamide], the EC50 was 8.5 µM. `Cc1cc2cc(CNC(=O)c3cnn(C(C)C)c3)ccc2[nH]1` [Compound 71, 1-isopropyl-N-[(2-methyl-1H-indol-5-yl)methyl]pyrazole-4-carboxamide] was tested, and the EC50 was 2.9 µM. In the case of `COCCn1cc(C(=O)N[C@H](C)c2ccc3[nH]c(C)cc3c2)cn1` [Compound 46, 1(2-methoxyethyl)-N-[(1R)-1-(2-methyl-1H-indol-5-yl)ethyl]pyrazole-4-carboxamide], the EC50 is reported as 3.5 µM. `Cc1cc2cc(CNC(=O)c3cnn(C4CCOC4)c3)ccc2[nH]1` (stereo not drawn) [Compound 51, N-[(2-methyl-1H-indol-5-yl)methyl]-1-tetrahydrofuran-3-yl-pyrazole-4-carboxamide] showed an EC50 of 6.1 µM. For `Cc1cc(C(=O)NCc2ccc3c(ccn3C(F)F)c2)on1` [Compound 63, N-[[1-(difluoromethyl)indol-5-yl]methyl]-3-methyl-isoxazole-5-carboxamide], the EC50 was 5.8 µM.

— US20120252853A1, “Positive allosteric modulators of nicotinic acetylcholine receptor” (H. Lundbeck A/S, priority 2011, published 2012)
